Source: patent US9309514B2, “G protein-coupled purinergic receptor Gpr17 mediates orexigenic effects of FoxO1 in AgRP neurons” (THE TRUSTEES OF COLUMBIA UNIVERSITY IN THE CITY OF NEW YORK, priority 2012, dated 2016)

What was measured:
mice [1] = assay: Glucose tolerance test / blood glucose after Gpr17 agonist administration; format: in vivo; conditions: 6 hr fast, test 20 minutes after administration (FIG. 12C)
Method: FIG. 12A-12D. […] (A) Satiated mice were injected with saline or Gpr17 agonist LTD4 (n=5-7). Food intake was monitored for the following time course. (B) Locomotor activity counts of satiated mice during daytime within 1.5 hours following administration of Gpr17 agonist LTD4 (n=6). (C) After fasting for 6 hrs, saline or LTD4 were administered to the mice (n=6-7). Glucose tolerance test was performed 20 minutes after the administration. […] Glucose was measured before or 20 minutes after the administration.

mice [2] = assay: Food intake after ICV (3rd ventricle) injection; format: in vivo
Excerpt: ELISA for leptin, insulin, and glucagon measurements (Millipore), and colorimetric assays for plasma free fatty acids and glycerol (Wako) were used.
The effect of delivering cangrelor into the 3rd ventricle of mice on food intake was studied.

AgRP neurons [3] = assay: Immunohistochemistry of pSTAT3, pS6 and pAkt in AgRP or POMC neurons after delivery into the 3rd ventricle
Method: Stereotactic manipulations in 3-4 month-old C57BL/6 mice were performed. Cannulae were placed and allowed 1 week for recovery (−1.8 mm anterior and 0 mm lateral to bregma and 5.3 mm below the skull surface). Correct positioning of the cannulae was verified by monitoring drinking activity after angiotensin injection. […] For immunohistochemistry studies, mice 4-5 hr were perfused after refeeding.
To test whether Gpr17 function affects ARH hormonal signaling in vivo, cangrelor was delivered directly into the 3rd ventricle of mice after an overnight fast and the co-localization of pSTAT3, pS6, and pAkt was determined in either POMC or AgRP neurons, identified by fluorescent reporter, after refeeding.

AgRP neurons [4] = assay: Patch-clamp electrophysiology of fluorescently labeled AgRP neurons in brain slices; format: cell-based, mice
Method: 300-μm coronal ARH slices were prepared from 6- to 8-week-old mice using ice cold sucrose-based cutting solution (adjusted to pH 7.3) containing (in mM): 10 NaCl, 25 NaHCO3, 195 sucrose, 5 glucose, 2.5 KCl, 1.25 NaH2PO4, 2 Na pyruvate, 0.5 CaCl2, and 7 MgCl2 bubbled continuously with 95% O2 and 5% CO2. Slices were allowed to recover at least 45 minutes at room temperature in recording solution (adjusted to pH 7.3) containing (in mM): 125 NaCl, 5 glucose, 25 NaHCO3, 2.5 KCl, 1.25 NaH2PO4, 2 CaCl2, and 1 MgCl2 bubbled continuously with 95% O2 and 5% CO2 before transferring them to a perfusion chamber for recording. Patch pipettes were pulled to resistances of 7-9 MΩ and filled them with solution (adjusted to pH 7.3) containing 128 K gluconate, 10 KCl, 10 HEPES, 0.1 EGTA, 2 MgCl2, 0.3 Na-GTP, and 3 Mg-ATP. Cells were selected using an upright microscope fitted with fluorescence optics (Nikon) and patched under IR-DIC optics. Electrical access was assessed in the whole-cell recording mode using a small-voltage step-pulse before and at the end of the current clamp recordings. Recordings were discarded in which the series resistance had been >15 MΩ. Current clamp recordings were acquired with no current injection using a MultiClamp 700B amplifier and Clampex data acquisition software (Axon Instruments). Action potential (AP) firing frequency, membrane potential, and AP amplitude using MiniAnalysis (Synaptosoft) were recorded at room temperature and analyzed. Electrophysiological recording to measure mEPSC and mIPSC in brain slices was performed as previously described (Pinto et al., 2004).
The electrophysiological properties of AgRP neurons identified using fluorescent reporters in brain slices from wild-type and Agrp-Foxo1^−/− mice (FIG. 5D-F) were studied. […] Furthermore, insulin suppressed the firing frequency of wild-type cells to ˜35% of basal level, a nearly three-fold reduction. Despite the lower basal firing frequency, insulin further suppressed the firing frequency of knockout neurons, with a 100-fold reduction. Insulin caused a similar reduction in membrane potential in wild-type and knockout cells (˜−20 mV).
Given the favorable metabolic profile of Agrp-Foxo1^−/− mice, experiments were designed to identify FoxO1 targets that mediate its effects and are readily targetable by chemical means. […] Next, Gpr17 regulation in ARH punch biopsies from fasted and refed mice was examined. […] To investigate the function of Gpr17 in AgRP neurons, the electrophysiological properties of fluorescently labeled AgRP neurons in response to the Gpr17 antagonist, cangrelor were tested. […] Therefore, inhibition of Gpr17 can affect the electrical activity of AgRP neurons in an insulin-mimetic fashion, supporting our hypothesis.

platelet = conditions: 4 μg/kg per minute IV, in approximately 70% of patients after 15 min; cited from earlier work
Neuro2A (N2A) cells = assay: Insulin signaling (pAkt western blot) in wild type N2A cells treated with or without cangrelor; format: cell-based; conditions: serum starved overnight, stimulated with insulin
Method: FIG. 14. Neuro2A (N2A) cells are a suitable model for studying the molecular mechanisms of Gpr17 signaling. Wild type N2A cells (treated with or without cangrelor) were serum starved overnight and stimulated with insulin. Insulin signaling activity was gauged by measuring pAkt by western blot. N2A cells express minimal endogenous Gpr17.
More experiments were conducted to study the in vivo regulation of Gpr17 expression by FoxO1. It was discovered that Knocking out FoxO using Synapsin-Cre in mediobasal hypothalamus (MBH) caused a concomitant reduction of Gpr17, further showing that Gpr17 is the endogenous target of FoxO. FIG. 13, panel A. Moreover, Gpr17 expression was elevated in the hippocampus of insulin resistant diabetic GIRKO mice. FIG. 13, panel B. Further studies of Gpr17 expression showing that it contributes to the causality of diabetes, were conducted using Neuro2A (N2A) cells that express minimal endogenous Gpr17. Wild type N2A cells (treated with or without cangrelor) were serum starved overnight and then stimulated with insulin. Insulin signaling activity was gauged by measuring pAkt by western blot. […] FIG. 14.

[5] = in vivo; cited from earlier work
mouse Gpr17 = assay: siRNA knockdown of Gpr17 in Gpr17-mCherry stable line (diminished mCherry signal); format: cell-based; conditions: Gpr17-mCherry stable line transfected with RNAi construct
Excerpt: Seven siRNA sequences were designed based on the gene sequence of mouse Gpr17. DNA oligomers were ligated into a MSCV-P2Gm vector and verified by sequencing. The correct clones were used for further evaluation of the effectiveness of each RNAi construct. Gpr17-mCherry-stable line was transfected with each of the seven constructs. The effectiveness of RNAi was scored by the diminished mCherry signal in cells. […] The resultant adenovirus expresses RNAi upon Cre-dependent recombination. Seven oligomer sequences to generate Gpr17 RNAi. The 7 oligomers were ligated into the vector (MSCV-P2Gm) to generate RNAi specific for Gpr17 gene. The sequences are provided as following. The common adaptor sequence is provided, and the targeting siRNA (specific for mouse Gpr17) sequence is highlighted with underline.
In another series of experiments, siRNA sequences that knock down Gpr17 were identified. Seven candidate siRNA sequences conjugated to Gfp (green) and directed against mouse Gpr17 were cloned into a vector and their ability to inhibit Gpr17 expression was determined in Gpr17-mCherry stable line by their effectiveness in diminishing red fluorescence. Seven candidate sequences against mouse Gpr17 were cloned into vector. The resultant adenovirus expresses RNAi upon Cre-dependent recombination. Various degrees of knockdown of Gpr17 were achieved using siRNA.

[6] = delivered into 3rd ventricle after overnight fast, determined after refeeding
[7] = cangrelor treatment (90 nM), same neurons before and after
[8] = 3rd ventricle, overnight fast, refeeding, in a subset of AgRP neurons
[9] = insulin, wild-type AgRP neurons

Molecule: CCCCC/C=C\C\C=C/C=C/C=C/[C@@H](SC[C@H](N)C(=O)NCC(=O)O)[C@@H](O)CCCC(=O)O [LTD4]
- glucose tolerance test / neuronal regulation of glucose homeostasis (mice [1]): impairs neuronal regulation of glucose homeostasis
- food intake (mice [2]; satiated mice injected with saline or LTD4 (FIG. 12A)): increases food intake
- pSTAT3 content in AgRP neurons (AgRP neurons [3]; [6]): decreased

Molecule: CSCCNc1nc(SCCC(F)(F)F)nc2c1ncn2[C@@H]1O[C@H](COP(=O)(O)OP(=O)(O)C(Cl)(Cl)P(=O)(O)O)[C@@H](O)[C@H]1O [cangrelor, [dichloro-[[[(2R,3S,4R,5R)-3,4-dihydroxy-5-[6-(2-methylsulfanylethylamino)-2-(3,3,3-trifluoropropylsulfanyl)purin-9-yl]oxolan-2-yl]methoxy-hydroxyphosphoryl]oxy-hydroxyphosphoryl]methyl]phosphonic acid]
- firing frequency of AgRP neurons (AgRP neurons [4]; [7]): significantly reduced
- membrane potential of AgRP neurons (AgRP neurons [4]; [7]): lower
- food intake during refeeding (mice [2]; Agrp-Foxo1−/− mice, overnight fast, cangrelor into 3rd ventricle): completely unaffected
- pAkt and pS6 in POMC neurons (AgRP neurons [3]; 3rd ventricle, overnight fast, refeeding): without effecting detectable changes
- pAkt in AgRP neurons (AgRP neurons [3]; [8]): increased
- pS6 in AgRP neurons (AgRP neurons [3]; [8]): increased
- pSTAT3 content in AgRP neurons (AgRP neurons [3]; [6]): specifically and dramatically increased
- pSTAT3 content in POMC neurons (AgRP neurons [3]; [6]): not in POMC neurons
- platelet inhibition (platelet): 100%
- insulin signaling (pAkt by western blot) (Neuro2A (N2A) cells): minimal effect
- plasma half-life [5]: three to six

Molecule: insulin: anorexigenic hormone applied to AgRP neurons in brain slices
- fold reduction of firing frequency (AgRP neurons [4]; insulin, Agrp-Foxo1−/− (knockout) AgRP neurons): 100 fold
- firing frequency relative to basal level (AgRP neurons [4]; [9]): ~35 % of basal level
- fold reduction of firing frequency (AgRP neurons [4]; [9]): three
- reduction in membrane potential (AgRP neurons [4]; insulin, wild-type and knockout cells): ~−20 mV

B1: SEQ ID NO. 7: oligomer ligated into MSCV-P2Gm vector to generate RNAi specific for mouse Gpr17 (nucleic acid)
DNA: TGCTGTTGACAGTGAGCGCCCGGATCACCTCCTGCCTCACTAGTGAAGCCACAGATGTAGTGAGGCAGGAGGTGATCCGGTTGCCTACTGCCTCGGA
- effectiveness in knocking down Gpr17 expression (diminishing red fluorescence) (mouse Gpr17): most effective

B2: SEQ ID NO. 9: oligomer ligated into MSCV-P2Gm vector to generate RNAi specific for mouse Gpr17 (nucleic acid)
DNA: TGCTGTTGACAGTGAGCGAAACTGTACCGGGAGAAGGCCTTAGTGAAGCCACAGATGTAAGGCCTTC
- effectiveness in knocking down Gpr17 expression (diminishing red fluorescence) (mouse Gpr17): most effective

B3: SEQ ID NO. 6: oligomer ligated into MSCV-P2Gm vector to generate RNAi specific for mouse Gpr17 (nucleic acid)
DNA: TGCTGTTGACAGTGAGCGATGGCTTCCTCTTCTATCTGAATAGTGAAGCCACAGATGTATTCAGATAGAAGAGGAAGCCAGTGCCTACTGCCTCGGA
- effectiveness in knocking down Gpr17 expression (diminishing red fluorescence) (mouse Gpr17): most effective
